Measured values from publication PMC8568133, “Evaluation of bisphenylthiazoles as a promising class for combating multidrug-resistant fungal infections” (PLoS ONE, 2021).
Values after ≈ are worked out from the molar mass of the structure shown. Like-named read-outs stand apart in the source and are kept apart here.

Columns and labels:
Type in all cases: cell-based
Candida parapsilosis = experiment: Antifungal broth microdilution MIC (50% growth inhibition); settings: Lodderomyces parapsilosis, read-out: MIC
Protocol: (§1) Serial dilutions (from 128 μg/mL to 0.06 μg/mL) of the tested compounds and control drugs (fluconazole, itraconazole and amphotericin) (in triplicates), were screened against clinical isolates of Candida albicans, Candida auris, Candida glabrata, Candida parapsilosis, Candida tropicalis, Candida krusei, Cryptococcus neoformans, Cryptococcus gattii and Aspergillus fumigatus species using the broth microdilution method according to the Clinical and Laboratory Standards Institute guidelines. MICs were determined as the lowest concentration of the compounds that inhibited the fungal growth by 50% after incubation at 35 °C for 24 h (for Candida and Aspergillus), or 48 h (for Cryptococcus). The minimum fungicidal concentration (MFC) of these compounds was tested by plating 4 μL from wells with no growth onto YPD agar plates. The plates were incubated at 37 °C for 24 hours before recording the MFC, which was categorized as the lowest concentration that reduced fungal growth by 99.9% [45]. The experiment was repeated three independent times.

Cryptococcus neoformans = experiment: Antifungal broth microdilution MIC (50% growth inhibition, 48 h); settings: Cryptococcus neoformans, read-out: MIC
Protocol: as §1

Cryptococcus gattii = experiment: as above; settings: Cryptococcus gattii, read-out: MIC
Protocol: as §1

[1] = test system: Lactobacillus casei ATCC-334; experiment: Broth microdilution MIC against normal human microbiota; settings: Lacticaseibacillus casei, ATCC334; Lactobacillus casei ATCC-334; read-out: MIC
Protocol: (§2) Broth microdilution was utilized to determine the activity of bisphenylthiazoles against the human gut microflora as described elsewhere. A bacterial solution equivalent to 0.5 McFarland standards was prepared and diluted in MRS broth to achieve a bacterial concentration of approximately 5 x 10^5 CFU/mL. Then, compounds/control antifungals (in triplicates), were added to the plates and serially diluted with media containing bacteria. The plates were incubated for 48 hours at 37 °C before recording the MIC values. The experiment was repeated three independent times.

[2] = test system: Lactobacillus gasseri HM-400; experiment: as above; settings: HM400; Lactobacillus gasseri HM-400; read-out: MIC
Protocol: as §2

[3] = test system: Lactobacillus crispatus HM-370; experiment: as above; settings: HM370; Lactobacillus crispatus HM-370; read-out: MIC
Protocol: as §2

Candida strains = experiment: Minimum fungicidal concentration, summary over Candida strains; settings: strains of Table 6
Protocol: as §1

Candida auris [4] = experiment: Checkerboard assay of compound 17 with standard antifungals; settings: for Interpretation of interaction: antifungal combined with compound 17; for MIC Combined, Antifungal: antifungal in combination with compound 17; for MIC: Candidozyma auris, checkerboard, agent alone
Protocol: To evaluate the interactions between bisphenylthiazoles and the standard antifungal agents (fluconazole, amphotericin B, 5-fluorocytosine and caspofungin) against 2 C. auris clinical isolates, a standard checkerboard assay was utilized as described in previous studies. The fractional inhibitory concentration index (FICI) was calculated for each interaction. Interactions where the FICI was ≤0.5 were categorized as synergistic (SYN). FICI values of >0.5–1.25 were categorized as additive (ADD). FICI values of >1.25–4 were categorized as indifferent, and FICI values of > 4 were categorized as antagonistic. The experiment was repeated three independent times.

Candida tropicalis = experiment: Antifungal broth microdilution MIC (50% growth inhibition) and MFC; settings: Candida tropicalis, ATCC1369, C. tropicalis ATCC 1369
Protocol: as §1

Candida krusei = experiment: as above; settings: Pichia kudriavzevii; for MIC: read-out: MIC
Protocol: as §1

Candida auris [5] = experiment: as above; settings: for MIC: read-out: MIC
Protocol: as §1

Candida albicans = experiment: as above; settings: Candida albicans; for MIC: read-out: MIC
Protocol: as §1

[6] = Candida auris 381 (azole-sensitive)
[7] = Candida auris 385 (azole-resistant)
[8] = ATCC10231, C. albicans ATCC 10231

`C[C@@H]1[C@H](O)[C@@H](C)/C=C/C=C/C=C/C=C/C=C/C=C/C=C/[C@H](O[C@@H]2O[C@H](C)[C@@H](O)[C@H](N)[C@@H]2O)C[C@@H]2O[C@](O)(C[C@@H](O)C[C@@H](O)[C@H](O)CC[C@@H](O)C[C@@H](O)CC(=O)O[C@H]1C)C[C@H](O)[C@H]2C(=O)O` [Amphotericin B, reference compound] showed an MIC (Candida parapsilosis; ATCC22019, C. parapsilosis ATCC 22019) of 0.5 µg/mL (≈ 0.541 µM), an MIC (Candida parapsilosis; C. parapsilosis CAB 502638) of 0.5 µg/mL (≈ 0.541 µM) and an MIC (Cryptococcus neoformans; C. neoformans NR 41298) of 1 µg/mL (≈ 1.08 µM). The MIC (Cryptococcus neoformans; C. neoformans NR 41300) was 1 µg/mL (≈ 1.08 µM), the MIC (Cryptococcus neoformans; C. neoformans NR 48770) was 0.5 µg/mL (≈ 0.541 µM) and the MIC (Cryptococcus gattii; C. gattii NR 43209) was 1 µg/mL (≈ 1.08 µM). For the same compound, the MIC (Cryptococcus gattii; C. gattii NR 43210) was 0.5 µg/mL (≈ 0.541 µM), the MIC [1] was greater than 128 µg/mL and the MIC [2] was greater than 128 µg/mL. The MIC [3] was greater than 128 µg/mL, the “fungistatic or fungicidal activity” value (Candida strains) was “fungicidal” and the Interpretation of interaction (Candida auris [4]; [6]) was “ADD (FICI values of >0.5–1.25 were categorized as additive (ADD))”. The “MIC Combined, Antifungal” value (Candida auris [4]; [6]) was 1 µg/mL, the Interpretation of interaction (Candida auris [4]; [7]) was “ADD (FICI values of >0.5–1.25 were categorized as additive (ADD))” and the “MIC Combined, Antifungal” value (Candida auris [4]; [7]) was 1 µg/mL. It also gave an MIC (Candida auris [4]; [6]) of 1 µg/mL, an MIC (Candida auris [4]; [7]) of 1 µg/mL and an MFC (Candida tropicalis) of 2 µg/mL (≈ 2.16 µM). The MIC (Candida tropicalis; read-out: MIC) was 1 µg/mL (≈ 1.08 µM), the MIC (Candida krusei; ATCC34135, C. krusei ATCC 34135) was 2 µg/mL (≈ 2.16 µM) and the MFC (Candida krusei; C. krusei CAB 396420) was 2 µg/mL (≈ 2.16 µM). For the same compound, the MIC (Candida krusei; C. krusei CAB 396420) was 2 µg/mL (≈ 2.16 µM), the MFC (Candida auris [5]; Candida auris 390) was 2 µg/mL (≈ 2.16 µM) and the MIC (Candida auris [5]; Candidozyma auris, C. auris 381) was 1 µg/mL (≈ 1.08 µM). The MIC (Candida auris [5]; Candidozyma auris, C. auris 382) was 1 µg/mL (≈ 1.08 µM), the MIC (Candida auris [5]; Candidozyma auris, C. auris 383) was 1 µg/mL (≈ 1.08 µM) and the MIC (Candida auris [5]; Candidozyma auris, C. auris 384) was 1 µg/mL (≈ 1.08 µM). The MIC (Candida auris [5]; Candidozyma auris, C. auris 385) was 1 µg/mL (≈ 1.08 µM), the MIC (Candida auris [5]; Candidozyma auris, C. auris 386) was 2 µg/mL (≈ 2.16 µM) and the MIC (Candida auris [5]; Candidozyma auris, C. auris 387) was 1 µg/mL (≈ 1.08 µM). The MIC (Candida auris [5]; Candidozyma auris, C. auris 388) was 2 µg/mL (≈ 2.16 µM), the MIC (Candida auris [5]; Candidozyma auris, C. auris 389) was 2 µg/mL (≈ 2.16 µM) and the MIC (Candida auris [5]; Candidozyma auris, C. auris 390) was 2 µg/mL (≈ 2.16 µM). For the same compound, the MFC (Candida auris [5]; Candidozyma auris, Candida auris 389, read-out: MFC) was 2 µg/mL (≈ 2.16 µM), the MFC (Candida albicans; [8]) was 1 µg/mL (≈ 1.08 µM) and the MIC (Candida albicans; [8]) was 1 µg/mL (≈ 1.08 µM). For the same compound, the MIC (Candida albicans; C. albicans NR-29448 (fluconazole-resistant)) was 1 µg/mL (≈ 1.08 µM), the MIC (Candida albicans; C. albicans SS5314 (wild-type)) was 1 µg/mL (≈ 1.08 µM) and the MFC (Candida albicans; C. albicans NR-29448) was 2 µg/mL (≈ 2.16 µM).
